What is called pest or weed control is the degree to which the test organism was suppressed or injured, in per cent. A high value points to strong suppression.

The record followed here is patent US11524934B2, “Phenylamine compounds” (PI INDUSTRIES LTD., priority 2017, dated 2022).

Assay [1] relates to Rhizoctonia solani. The conditions noted are these: 168 h, read-out: control.
Assay [2] has as its system Botrytis cinerea. The assay can be described thus: Botrytis cinerea (Gray mold) in vitro test, radial growth on Potato Dextrose Agar. Conditions: 168 h, read-out: control.
The subject of assay [3] is Pyricularia oryzae. Briefly: microbe, parasite or virus in culture. In kind it is cell-based. The conditions noted are these: 168 h, read-out: control.
Assay [4] has as its system Colletotrichum capsici. The assay can be described thus: Colletotrichum capsici (anthracnose) in vitro test, radial growth on Potato Dextrose Agar. The conditions noted are these: Colletotrichum truncatum, 168 h, read-out: control.
Protocol: Colletotrichum capsici (anthracnose): Compounds were dissolved in 0.3% DMSO & then added to Potato Dextrose Agar medium just prior to dispensing it into Petri dishes. 5 ml medium with compound in the desired concentration was dispensed into 60 mm sterile petri-plates. After solidification each plate was seeded with 5 mm size mycelial disc taken form periphery of actively growing virulent culture plate. Plates were incubated in growth chambers at 25° C. temperature & 60% Relative Humidity for seven days and radial growth was measured.
The test system of assay [5] is Septoria lycopersici. Briefly: Septoria lycopersici (Leaf spot of tomato) in vitro test, radial growth on Potato Dextrose Agar. Conditions: 168 h, read-out: control.
Assay [6] relates to Alternaria solani. Briefly: Alternaria solani (early blight of tomato/potato) in vitro test, radial growth on Potato Dextrose Agar. Conditions: 168 h, read-out: control.
Assay [7] concerns Phakopsora pachyrhizi. Briefly: Phakopsora pachyrhizi test in soybean (in vivo on plants), preventive activity. Conditions: preventive spray on soybean plants, inoculated one day after treatment, disease severity rated vs untreated check. The protocol: Example 8 (In Vivo on Plants): Phakopsora pachyrhizi Test in Soybean
Compounds were dissolved in 2% DMSO/Acetone & then mixed with water to the calibrated spray volume of 50 ml and poured into the spray bottles for further applications.
To test the preventive activity of compounds, healthy young soybean plants raised in the greenhouse were sprayed with active compound preparation at the stated application rates inside the spray cabinets using hallowcone nozzles. One day after treatment, the plants were inoculated with spore suspension containing 2.1×10^6 Phakopsora pachyrhizi inoculum. The inoculated plants were then kept in greenhouse chamber at 25° C. temperature & 90% Relative Humidity for disease expression.
A visual assessment of compound's performance was carried out by rating the disease severity (0-100% scale) on treated plants on 3, 7, 10 & 15 days after application. Efficacy (% control) of the compounds was calculated by comparing the disease rating in the treatment with the one of the untreated control. The sprayed plants were also assessed for compound's plant compatibility by recording symptoms like necrosis, chlorosis & stunting.

In assay [8] the test system is Fusarium culmorum. Briefly: Fusarium culmorum (Foot rot of cereals) in vitro test, radial growth on Potato Dextrose Agar. In kind it is cell-based. The conditions noted are these: 168 h, read-out: control.

As to `CCN(C)C=Nc1cc(C)c(C(=O)COc2c(C)cc(C)cc2Br)cc1C` [Compound 89, N′-(4-(2-(2-bromo-4,6-dimethylphenoxy)acetyl)-2,5-dimethylphenyl)-N-ethyl-N-methylformimidamide], the inhibition of growth at 300 ppm in assay [1], in assay [2], in assay [3], in assay [4], in assay [5] and in assay [6] was > 70% each time.

`CCN(C)C=Nc1cc(C)c(C(=O)CSc2ccc(Cl)c(Cl)c2)cc1C` [Compound 8, N′-(4-(2-((3,4-dichlorophenyl)thio)acetyl)-2,5-dimethylphenyl)-N-ethyl-N-methylformimidamide]: the inhibition of growth at 300 ppm in assay [1], in assay [2], in assay [3] and in assay [6] was > 70% each time. Besides, the pest or weed control at 500 ppm in assay [7] was > 90%.

`CCN(C)C=Nc1cc(C)c(C(=O)CSc2cccc(Br)c2)cc1C` [Compound 6, N′-(4-(2-((3-bromophenyl)thio)acetyl)-2,5-dimethylphenyl)-N-ethyl-N-methylformimidamide]: the inhibition of growth at 300 ppm in assay [1], in assay [2], in assay [3], in assay [4], in assay [5] and in assay [6] was > 70% throughout. In addition, the pest or weed control at 500 ppm in assay [7] is > 90%.

`CCN(C)C=Nc1cc(C)c(C(=O)CSc2cccc(F)c2)cc1C` [Compound 4, N-ethyl-N′-(4-(2-((3-fluorophenyl)thio)acetyl)-2,5-dimethylphenyl)-N-methylformimidamide]: the inhibition of growth at 300 ppm in assay [1], in assay [2], in assay [3], in assay [4], in assay [5] and in assay [6] was > 70% in each case. For the same molecule, in assay [7], the pest or weed control at 500 ppm was > 90%.

As to `CCN(C)C=Nc1cc(C)c(C(=O)CSc2ncc(C(F)(F)F)cc2Cl)cc1C` [Compound 18, N′-(4-(2-((3-chloro-5-(trifluoromethyl)pyridin-2-yl)thio)acetyl)-2,5-dimethylphenyl)-N-ethyl-N-methylformimidamide], the inhibition of growth at 300 ppm in assay [1], in assay [2], in assay [3] and in assay [6] was > 70% throughout. For the same molecule, the pest or weed control at 500 ppm in assay [7] is > 90%.

In the case of `CCN(C)C=Nc1cc(C)c(C(=O)COc2c(C)cccc2Cl)cc1C` [Compound 91, N′-(4-(2-(2-chloro-6-methylphenoxy)acetyl)-2,5-dimethylphenyl)-N-ethyl-N-methylformimidamide], the inhibition of growth at 300 ppm in assay [1] is > 70%; in assay [8], 70%; in assay [2] it was > 70%; in assay [3], > 70%; in assay [4] it was > 70%; in assay [6], > 70%.

Consider `CCN(C)C=Nc1cc(C)c(C(=O)Cn2cnnc2)cc1C` [Compound 114, N′-(4-(2-(4H-1,2,4-triazol-4-yl)acetyl)-2,5-dimethylphenyl)-N-ethyl-N-methylformimidamide], for which the inhibition of growth at 300 ppm is > 70% in assay [1]; 70% in assay [8]; > 70% in assay [2]; > 70% in assay [3]; > 70% in assay [4]; > 70% in assay [6].

With `CCN(C)C=Nc1cc(C)c(C(=O)COc2cccc(Br)c2)cc1C` [Compound 3, N′-(4-(2-(3-bromophenoxy)acetyl)-2,5-dimethylphenyl)-N-ethyl-N-methylformimidamide], the inhibition of growth at 300 ppm in assay [1], in assay [2], in assay [3], in assay [4], in assay [5] and in assay [6] was > 70% in each case.

Turning to `CCN(C)C=Nc1cc(C)c(C(=O)COc2c(Cl)cccc2Cl)cc1C` [Compound 86, N′-(4-(2-(2,6-dichlorophenoxy)acetyl)-2,5-dimethylphenyl)-N-ethyl-N-methylformimidamide], the inhibition of growth at 300 ppm in assay [1] was > 70%; in assay [8], 70%; in assay [2], > 70%; in assay [3], > 70%; in assay [4], > 70%; in assay [6], > 70%.

For the molecule `CCN(C)C=Nc1cc(C)c(C(=O)COc2cccc(F)c2)cc1C` [Compound 9, N-ethyl-N′-(4-(2-(3-fluorophenoxy)acetyl)-2,5-dimethylphenyl)-N-methylformimidamide], the inhibition of growth at 300 ppm in assay [1], in assay [2], in assay [3], in assay [4], in assay [5] and in assay [6] was > 70% throughout. In assay [7], the pest or weed control at 500 ppm was > 90%.

As to `CCN(C)C=Nc1cc(C)c(C(=O)C(C)(C)Sc2cccc(C)c2)cc1C` [Compound 83, N′-(2,5-dimethyl-4-(2-methyl-2-(m-tolylthio)propanoyl)phenyl)-N-ethyl-N-methylformimidamide], the inhibition of growth at 300 ppm was > 70% in assay [1]; 70% in assay [8]; > 70% in assay [2]; > 70% in assay [3]; > 70% in assay [4]; > 70% in assay [6].

Regarding `CCN(C)C=Nc1cc(C)c(C(=O)CSc2ccccc2)cc1C` [Compound 1, N′-(2,5-dimethyl-4-(2-(phenylthio)acetyl)phenyl)-N-ethyl-N-methylformimidamide], the inhibition of growth at 300 ppm in assay [1], in assay [2], in assay [3], in assay [5] and in assay [6] was > 70% throughout. Moreover, the pest or weed control at 500 ppm in assay [7] was > 90%.

Take `Cc1cc(C(=O)COc2ccccc2Cl)c(C)cc1N=CN(C)C` [Compound 109, N′-(4-(2-(2-chlorophenoxy)acetyl)-2,5-dimethylphenyl)-N,N-dimethylformimidamide]: the inhibition of growth at 300 ppm in assay [8] was 70%; in assay [3], > 70%; in assay [4], > 70%; in assay [6], > 70%.

For the molecule `CCN(C)C=Nc1cc(C)c(C(=O)COc2ccc(C)cc2)cc1C` [Compound 15, N′-(2,5-dimethyl-4-(2-(p-tolyloxy)acetyl)phenyl)-N-ethyl-N-methylformimidamide], the inhibition of growth at 300 ppm in assay [1], in assay [2], in assay [3], in assay [4], in assay [5] and in assay [6] was > 70% in each case. Also, the pest or weed control at 500 ppm in assay [7] is > 90%.

As for `CCN(C)C=Nc1cc(C)c(C(=O)CSc2cccc(OC)c2)cc1C` [Compound 27, N-ethyl-N′-(4-(2-((3-methoxyphenyl)thio)acetyl)-2,5-dimethylphenyl)-N-methylformimidamide], the inhibition of growth at 300 ppm in assay [1], in assay [2], in assay [3], in assay [4], in assay [5] and in assay [6] was > 70% in each case.

As to `CCN(C)C=Nc1cc(C)c(C(=O)CN(C)c2ccc(C)cc2)cc1C` [Compound 92, N′-(2,5-dimethyl-4-(N-methyl-N-(p-tolyl)glycyl)phenyl)-N-ethyl-N-methylformimidamide], the inhibition of growth at 300 ppm in assay [1], in assay [3], in assay [4], in assay [5] and in assay [6] was > 70% in each case.

As to `CCN(C)C=Nc1cc(C)c(C(=O)CSc2ccc(Cl)cc2)cc1C` [Compound 29, N′-(4-(2-((4-chlorophenyl)thio)acetyl)-2,5-dimethylphenyl)-N-ethyl-N-methylformimidamide], the inhibition of growth at 300 ppm in assay [1] was > 70%; in assay [8], 70%; in assay [2], > 70%; in assay [3], > 70%; in assay [5], > 70%; in assay [6] it was > 70%.
